From patent publication US20260132128A1, “COMPOUND FOR RECOVERING P53 MUTATION FUNCTION AND USE THEREOF” (SHENZHEN ZHONGGE BIOLOGICAL TECHNOLOGY CO., LTD., priority 2022, published 2026)
Marks after values point to notes of the source that are not given here.

Legend:
NUGC-3 cells = test: NUGC-3 cell proliferation assay (CTG); type: cell-based, human; conditions: for GI50: 6 days, CTG; for Compound GI50 (nM)/Reference compound GI50 (nM): multiple ratio of GI50 of the compound to the reference compound
How it was run: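 GI50 derived by variable-slope regression of percent inhibition (normalized to blank and 0.1% DMSO controls) from CTG luminescence. Compound was given as 10 threefold dilutions, highest final 10 μM, to overnight-seeded NUGC-3 cells (250/well) for 6 days, 37° C, 5% CO2.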

p53 Y220C = molecular target: T1, p53 Y220C (Homo sapiens, UniProt P04637, Y220C); test: DNA binding test (HTRF): binding of P53Y220C protein to DNA; type: biochemical; conditions: multiple ratio of EC50 of the compound to the reference compound, DNA binding test
T1 construct: a truncated mutant containing only amino acids 94-312 of p53; made in house; host or cells: E. coli

BxPC-3 cells = test: BxPC-3 cell proliferation test (CTG); type: cell-based; conditions: Homo sapiens, 144 h, 6 days
Description: To detect the inhibitory effects of the aforementioned compounds on the proliferation ability of BxPC-3 cells, 125 BxPC-3 cells (ATCC®CRL-1687) were seeded into a 384-well plate (Corning 3765), 35 μL per well, and placed in a constant temperature incubator at 37° C. and 5% CO2 overnight. Then, 40 nL of the compound was added to the 384-well plate using an Echo 655 Liquid Handler, with a maximum final concentration of 10 μM, 1:3 serial dilution, and in a total of 10 doses. Incubation was performed at 37° C., 5% CO2 for 6 days. The plate was taken out from the incubator and equilibrated at room temperature for 10 minutes. 20 μL of CTG (Promage G7572) was added to each well of the plate according to the platemap. The plate was centrifuged at 1000 rpm for 1 minute. The lysis of cells was induced by mixing on a shaker for 2 minutes. The plate was centrifuged at 1000 rpm for 1 minute. Incubation was performed at room temperature for 10 minutes to stabilize luminescence signals. Luminescence values were recorded by Envision (PerkinElmer 2105-0020). GraphPad 9.0 was used to fit the inhibition rate and compound concentration into a nonlinear regression curve (dose response-variable slope) to calculate GI50, inhibition rate={1−(A−B)/(C−B)}*100%, A=signal value of compound; B=average signal of blank control; C=average signal of negative control (wherein the negative control was 0.1% DMSO).

Compound: CNC(=O)c1ccc(NCC#Cc2nc3c(NC4CCC(N5CC6(COC6)C5)CC4F)cccn3c2CC(F)(F)F)c(OC)c1 (single isomer, unassigned) [Compound 35-6i]
- GI50 (NUGC-3 cells): < 1 µM
- Compound GI50 (nM)/Reference compound GI50 (nM) (NUGC-3 cells): A (A: GI50 of the compound ≤ GI50 of the reference compound)
- Compound EC50 (nM)/Reference compound EC50 (nM) (p53 Y220C): B (B: EC50 of the reference compound<EC50 of the compound≤3.0*EC50 of the reference compound)
- GI50 (BxPC-3 cells): < 1 µM

Compound: [2H]C([2H])([2H])NC(=O)c1ccc(NCC#Cc2cc3c(NC4CCC(N5CC6(COC6)C5)CC4F)cccn3c2CC(F)(F)F)c(OC([2H])([2H])[2H])c1 (single isomer, unassigned) [Compound 74d]
- GI50 (NUGC-3 cells; Homo sapiens, NUGC-3, 144 h): < 1 µM
- Compound GI50 (nM)/Reference compound GI50 (nM) (NUGC-3 cells): A (A: GI50 of the compound ≤ GI50 of the reference compound)
- Compound EC50 (nM)/Reference compound EC50 (nM) (p53 Y220C): A (A: EC50 of the compound≤EC50 of the reference compound)

Compound: COc1cc(C(=O)NC2CC2)ccc1NCC#Cc1nc2c(NC3CC[C@@H](N4CC5(COC5)C4)C[C@@H]3F)cccn2c1CC(F)(F)F (stereo partly shown) [Compound 54]
- GI50 (NUGC-3 cells; Homo sapiens, NUGC-3, 144 h): < 1 µM
- Compound GI50 (nM)/Reference compound GI50 (nM) (NUGC-3 cells): C (C: GI50 of the compound ≥ 3 * GI50 of the reference compound)
- Compound EC50 (nM)/Reference compound EC50 (nM) (p53 Y220C): B (B: EC50 of the reference compound<EC50 of the compound≤3.0*EC50 of the reference compound)

Compound: CNC(=O)c1ccc(NCC#Cc2nc3c(N[C@@H]4CCN(C)C[C@@H]4F)cccn3c2CC(F)(F)F)c(OC)c1 [Compound 5]
- GI50 (NUGC-3 cells; Homo sapiens, NUGC-3, 144 h): 1 to 5 µM
- Compound GI50 (nM)/Reference compound GI50 (nM) (NUGC-3 cells): B (B: GI50 of the reference compound < GI50 of the compound ≤ 3.0 * GI50 of the reference compound)
- Compound EC50 (nM)/Reference compound EC50 (nM) (p53 Y220C): B (B: EC50 of the reference compound<EC50 of the compound≤3.0*EC50 of the reference compound)
- GI50 (BxPC-3 cells): < 1 µM

Compound: [2H]C([2H])([2H])NC(=O)c1ccc(NCC#Cc2nc3c(NC4CC[C@@H](N5CC6(COC6)C5)C[C@@H]4F)cccn3c2CC(F)(F)F)c(OC([2H])([2H])[2H])c1 (stereo partly shown) [Compound 64]
- GI50 (NUGC-3 cells; Homo sapiens, NUGC-3, 144 h): < 1 µM
- Compound GI50 (nM)/Reference compound GI50 (nM) (NUGC-3 cells): B (B: GI50 of the reference compound < GI50 of the compound ≤ 3.0 * GI50 of the reference compound)
- Compound EC50 (nM)/Reference compound EC50 (nM) (p53 Y220C): B (B: EC50 of the reference compound<EC50 of the compound≤3.0*EC50 of the reference compound)
- GI50 (BxPC-3 cells): < 1 µM

Compound: CNC(=O)c1ccc(NCC#Cc2nc3c(NC4CC[C@@H](N5CC6(COC6)C5)C[C@@H]4F)cccn3c2CC(F)(F)F)c(OCF)c1 (stereo partly shown) [Compound 58]
- GI50 (NUGC-3 cells; Homo sapiens, NUGC-3, 144 h): < 1 µM
- Compound GI50 (nM)/Reference compound GI50 (nM) (NUGC-3 cells): B (B: GI50 of the reference compound < GI50 of the compound ≤ 3.0 * GI50 of the reference compound)
- Compound EC50 (nM)/Reference compound EC50 (nM) (p53 Y220C): B (B: EC50 of the reference compound<EC50 of the compound≤3.0*EC50 of the reference compound)
- GI50 (BxPC-3 cells): < 1 µM
